Laboratory results published in patent US20240150377A1, “MODULATORS OF CYSTIC FIBROSIS TRANSMEMBRANE CONDUCTANCE REGULATOR” (VERTEX PHARMACEUTICALS INCORPORATED, priority 2020, published 2024).
pEC50: −log10 of the molar value. Read-outs that look alike come from different tables or passages of the source. Each block holds one molecule with its values, some of them ahead of it.

What was measured:
[1] = amide bond, 13-membered ring
[2] = target: T1, CFTR (Homo sapiens, UniProt P13569, DEL508-508); assay: HBE assay: Ussing chamber assay of CFTR-mediated short-circuit currents; assay type: cell-based; conditions: for pEC50: read-out: HBE EC50
T1 construct: endogenous in cells; host or cells: primary human bronchial epithelial cells from CF subjects (F508del/MF-HBE), differentiated at air-liquid interface
T1 sequence (P13569 with tags, fused parts or gaps DEL508-508): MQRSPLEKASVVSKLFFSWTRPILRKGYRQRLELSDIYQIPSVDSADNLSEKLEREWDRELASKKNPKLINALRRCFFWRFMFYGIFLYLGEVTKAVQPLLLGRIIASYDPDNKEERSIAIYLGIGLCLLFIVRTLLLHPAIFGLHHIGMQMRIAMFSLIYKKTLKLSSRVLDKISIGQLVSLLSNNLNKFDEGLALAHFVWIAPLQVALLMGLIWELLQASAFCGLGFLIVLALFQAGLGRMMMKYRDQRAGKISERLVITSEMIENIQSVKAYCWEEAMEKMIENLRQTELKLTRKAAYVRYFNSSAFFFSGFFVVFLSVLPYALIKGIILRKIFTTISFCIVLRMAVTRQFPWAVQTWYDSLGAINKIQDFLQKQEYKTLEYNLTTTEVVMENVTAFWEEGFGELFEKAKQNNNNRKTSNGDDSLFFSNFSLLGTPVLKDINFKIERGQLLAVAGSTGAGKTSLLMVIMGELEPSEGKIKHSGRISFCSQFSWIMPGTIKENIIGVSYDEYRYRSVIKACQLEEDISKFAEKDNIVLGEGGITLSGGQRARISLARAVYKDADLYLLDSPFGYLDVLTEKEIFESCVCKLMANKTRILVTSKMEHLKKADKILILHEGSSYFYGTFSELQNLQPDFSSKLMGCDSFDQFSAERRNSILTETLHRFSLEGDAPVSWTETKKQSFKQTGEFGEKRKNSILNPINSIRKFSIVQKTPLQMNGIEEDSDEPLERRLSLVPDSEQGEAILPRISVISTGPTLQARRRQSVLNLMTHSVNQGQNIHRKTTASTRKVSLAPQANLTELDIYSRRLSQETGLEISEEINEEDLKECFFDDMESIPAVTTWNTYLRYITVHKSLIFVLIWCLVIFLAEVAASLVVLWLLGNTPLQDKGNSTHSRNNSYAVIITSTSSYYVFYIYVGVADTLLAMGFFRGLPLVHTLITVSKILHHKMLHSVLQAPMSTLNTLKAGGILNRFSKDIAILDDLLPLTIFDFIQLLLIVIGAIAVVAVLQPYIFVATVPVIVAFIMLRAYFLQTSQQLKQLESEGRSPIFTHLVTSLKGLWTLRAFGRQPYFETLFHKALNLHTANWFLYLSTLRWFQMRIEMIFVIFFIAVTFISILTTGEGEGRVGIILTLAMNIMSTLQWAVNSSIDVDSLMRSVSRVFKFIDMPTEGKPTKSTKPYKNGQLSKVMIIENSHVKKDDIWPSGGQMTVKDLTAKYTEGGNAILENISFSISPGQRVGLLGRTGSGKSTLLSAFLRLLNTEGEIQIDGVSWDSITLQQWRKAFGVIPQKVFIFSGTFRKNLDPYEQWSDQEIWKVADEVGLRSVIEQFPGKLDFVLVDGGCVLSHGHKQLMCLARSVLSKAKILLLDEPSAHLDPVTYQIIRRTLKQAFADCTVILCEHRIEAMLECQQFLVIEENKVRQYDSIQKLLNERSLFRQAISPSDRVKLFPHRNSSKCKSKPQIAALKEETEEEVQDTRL
Summary of the method: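 CFTR-mediated Isc (μA/cm²) equals the peak response to apical 20 μM forskolin minus the residual after a 20 μM each BPO/GlyH-101/CFTR inhibitor 172 cocktail, recorded in Ussing chambers at Vhold 0 mV, 37 °C, pH 7.4, with 30 μM apical amiloride. Cells were F508del/MF HBE cultures preincubated 18-24 h with corrector (concentration range or 10 μM) plus 1 μM ivacaftor in 20% human serum.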

[3] = Table 10, read-out: HBE Max activity (%)
[4] = Table 11, read-out: HBE Max Activity (%)

- pEC50 ([2]; Table 10): > 6.00
- Emax [2, 3]: > 60%
SMILES: Cc1cccc(C)c1-c1cc2nc(n1)NS(=O)(=O)c1cccc(c1)C(=O)N(Cc1ccc3ccccc3n1)[C@H](CC(C)(C)C)CO2 [Compound 58, (11R)-6-(2,6-Dimethylphenyl)-11-(2,2-dimethylpropyl)-2,2-dioxo-12-(2-quinolylmethyl)-9-oxa-2λ^6-thia-3,5,12,19-tetrazatricyclo[12.3.1.14,8]nonadeca-1(18),4(19),5,7,14,16-hexaen-13-one]
- ring closure, yield after HPLC ([1]; from 3-[[4-(2,6-dimethylphenyl)-6-[(2R)-4,4-dimethyl-2-(2-quinolylmethylamino)pentoxy]pyrimidin-2-yl]sulfamoyl]benzoic acid (Dihydrochloride salt), HATU/DIEA, DMF, 27.5 mM, 25.0 °C): 73%

- pEC50 ([2]; Table 11): > 6.00
- Emax [2, 4]: > 60%
SMILES: Cc1cccc(C)c1-c1cc2nc(n1)NS(=O)(=O)c1cccc(c1)C(=O)N(Cc1cccn(C)c1=O)[C@H](CC(C)(C)C)CO2 [Compound 59, (11R)-6-(2,6-Dimethylphenyl)-11-(2,2-dimethylpropyl)-12-[(1-methyl-2-oxo-3-pyridyl)methyl]-2,2-dioxo-9-oxa-2λ^6-thia-3,5,12,19-tetrazatricyclo[12.3.1.14,8]nonadeca-1(18),4(19),5,7,14,16-hexaen-13-one]
- ring closure, yield after HPLC ([1]; from Cc1cccc(C)c1-c1cc(OC[C@@H](CC(C)(C)C)NCc2cccn(C)c2=O)nc(NS(=O)(=O)c2cccc(C(=O)O)c2)n1, HATU/DIEA, DMF, 28.1 mM, 25.0 °C, 2.0 h): 54%

- activation at 10 µM ([2]; Table 11, at 10 μM, read-out: HBE Activity at 10 μM (%)): > 60%
- pEC50 ([2]; Table 11): > 6.00
- Emax [2, 4]: > 60%
SMILES: Cc1cccc(C)c1-c1cc2nc(n1)NS(=O)(=O)c1cccc(c1)C(=O)N(Cc1ncc(NCC(C)(C)C)cn1)[C@H](CC(C)(C)C)CO2 [Compound 116, (11R)-6-(2,6-Dimethylphenyl)-11-(2,2-dimethylpropyl)-12-[[5-(2,2-dimethylpropylamino)pyrimidin-2-yl]methyl]-2,2-dioxo-9-oxa-2λ^6-thia-3,5,12,19-tetrazatricyclo[12.3.1.14,8]nonadeca-1(18),4(19),5,7,14,16-hexaen-13-one]
- ring closure, yield after HPLC ([1]; from 3-[[4-(2,6-dimethylphenyl)-6-[(2R)-2-[[5-(2,2-dimethylpropylamino)pyrimidin-2-yl]methylamino]-4,4-dimethyl-pentoxy]pyrimidin-2-yl]sulfamoyl]benzoic acid (Dihydrochloride salt), HATU/DIEA, DMF, 23.6 mM, 25.0 °C): 15%

- pEC50 ([2]; Table 10): > 6.00
- Emax [2, 3]: > 60%
SMILES: Cc1cccc(C)c1-c1cc2nc(n1)NS(=O)(=O)c1cccc(c1)C(=O)N(Cc1ncc(N(C)CC(C)(C)C)cn1)[C@H](CC(C)(C)C)CO2 [Compound 115, (11R)-6-(2,6-Dimethylphenyl)-11-(2,2-dimethylpropyl)-12-[[5-[2,2-dimethylpropyl(methyl)amino]pyrimidin-2-yl]methyl]-2,2-dioxo-9-oxa-2λ^6-thia-3,5,12,19-tetrazatricyclo[12.3.1.14,8]nonadeca-1(18),4(19),5,7,14,16-hexaen-13-one]
- ring closure, yield after HPLC ([1]; from 3-[[4-(2,6-dimethylphenyl)-6-[(2R)-2-[[5-[2,2-dimethylpropyl(methyl)amino]pyrimidin-2-yl]methylamino]-4,4-dimethyl-pentoxy]pyrimidin-2-yl]sulfamoyl]benzoic acid (Dihydrochloride salt), HATU/DIEA, DMF, 19.3 mM, 25.0 °C): 50%

- pEC50 ([2]; Table 11): > 6.00
- Emax [2, 4]: > 60%
SMILES: Cc1cccc(C)c1-c1cc2nc(n1)NS(=O)(=O)c1cccc(c1)C(=O)N(Cc1ncc(OC(C)C)cn1)[C@H](CC(C)(C)C)CO2 [Compound 118, (11R)-6-(2,6-Dimethylphenyl)-11-(2,2-dimethylpropyl)-12-{[5-(propan-2-yloxy)pyrimidin-2-yl]methyl}-9-oxa-2λ^6-thia-3,5,12,19-tetraazatricyclo[12.3.1.14,8]nonadeca-1(17),4,6,8(19),14(18),15-hexaene-2,2,13-trione]
- ring closure, yield after HPLC ([1]; from Cc1cccc(C)c1-c1cc(OC[C@@H](CC(C)(C)C)NCc2ncc(OC(C)C)cn2)nc(NS(=O)(=O)c2cccc(C(=O)O)c2)n1, CDMT/NMM, DMF, 14.3 mM, 13.25 h): 59%

- pEC50 ([2]; Table 11): > 6.00
- Emax [2, 4]: > 60%
SMILES: COCc1cccc(CN2C(=O)c3cccc(c3)S(=O)(=O)Nc3nc(cc(-c4c(C)cccc4C)n3)OC[C@H]2CC(C)(C)C)n1 [Compound 130, (11R)-6-(2,6-Dimethylphenyl)-11-(2,2-dimethylpropyl)-12-[[6-(methoxymethyl)-2-pyridyl]methyl]-2,2-dioxo-9-oxa-2λ^6-thia-3,5,12,19-tetrazatricyclo[12.3.1.14,8]nonadeca-1(18),4(19),5,7,14,16-hexaen-13-one]
- ring closure, yield after HPLC ([1]; from COCc1cccc(CN[C@@H](COc2cc(-c3c(C)cccc3C)nc(NS(=O)(=O)c3cccc(C(=O)O)c3)n2)CC(C)(C)C)n1, CDMT/NMM, DMF, 3.0 h, 2 steps): 10%

SMILES: Cc1cccc(C)c1-c1cc2nc(n1)NS(=O)(=O)c1cccc(c1)C(=O)N(Cc1ccc(I)cc1)[C@H](CC(C)(C)C)CO2
- ring closure, yield after HPLC ([1]; from Cc1cccc(C)c1-c1cc(OC[C@@H](CC(C)(C)C)NCc2ccc(I)cc2)nc(NS(=O)(=O)c2cccc(C(=O)O)c2)n1, HATU/DIEA, DMF, 26.1 mM, 15.0 h): 32%

SMILES: Cc1cccc(C)c1-c1cc2nc(n1)N=S(N)(=O)c1cccc(c1)C(=O)N(Cc1ncc(N3CC(C)(C)C3)cn1)[C@H](CC(C)(C)C)CO2 (single isomer, unassigned; isomer b)
- ring closure, yield after HPLC ([1]; from 3-[[[4-[(2R)-2-[[5-(3,3-dimethylazetidin-1-yl)pyrimidin-2-yl]methylamino]-4,4-dimethyl-pentoxy]-6-(2,6-dimethylphenyl)pyrimidin-2-yl]amino]sulfonimidoyl]benzoic acid (hydrochloride salt) isomer B, CDMT/NMM, DMF, 18.4 mM): 4%

- pEC50 ([2]; Table 10): > 6.00
- Emax [2, 3]: > 60%
SMILES: Cc1cccc(C)c1-c1cc2nc(n1)NS(=O)(=O)c1cccc(c1)C(=O)N(Cc1ncc(N3CCOCC3)cc1N1CCOCC1)[C@H](CC(C)(C)C)CO2 [Compound 56, (11R)-6-(2,6-Dimethylphenyl)-11-(2,2-dimethylpropyl)-12-[(3,5-dimorpholino-2-pyridyl)methyl]-2,2-dioxo-9-oxa-2λ^6-thia-3,5,12,19-tetrazatricyclo[12.3.1.14,8]nonadeca-1(18),4(19),5,7,14,16-hexaen-13-one]
- ring closure, yield after HPLC ([1]; from Cc1cccc(C)c1-c1cc(OC[C@@H](CC(C)(C)C)NCc2ncc(N3CCOCC3)cc2N2CCOCC2)nc(NS(=O)(=O)c2cccc(C(=O)O)c2)n1, CDMT/NMM, DMF, 25.0 °C, 2.5 h, 2 steps): 22%

SMILES: CCOC(=O)COc1ccc(CN2C(=O)c3cccc(c3)S(=O)(=O)Nc3nc(cc(-c4c(C)cccc4C)n3)OC[C@H]2CC(C)(C)C)nc1
- ring closure, yield after HPLC ([1]; from CCOC(=O)COc1ccc(CN[C@@H](COc2cc(-c3c(C)cccc3C)nc(NS(=O)(=O)c3cccc(C(=O)O)c3)n2)CC(C)(C)C)nc1, HATU/DIEA, DMF, 29.1 mM, 25.0 °C, 4.0 h): 42%

SMILES: Cc1cccc(C)c1-c1cc2nc(n1)NS(=O)(=O)c1cccc(c1)C(=O)N(CCc1ccc(Br)cn1)[C@H](CC(C)(C)C)CO2
- ring closure, yield after HPLC ([1]; from Cc1cccc(C)c1-c1cc(OC[C@@H](CC(C)(C)C)NCCc2ccc(Br)cn2)nc(NS(=O)(=O)c2cccc(C(=O)O)c2)n1, CDMT/NMM, DMF, 25.0 °C, 3.0 h, 2 steps): 15%

SMILES: Cc1cccc(C)c1-c1cc2nc(n1)NS(=O)(=O)c1cccc(c1)C(=O)N(CC1CCN(C(=O)OC(C)(C)C)CC1)[C@H](CC(C)(C)C)CO2
- ring closure, yield after HPLC ([1]; from Cc1cccc(C)c1-c1cc(OC[C@@H](CC(C)(C)C)NCC2CCN(C(=O)OC(C)(C)C)CC2)nc(NS(=O)(=O)c2cccc(C(=O)O)c2)n1, CDMT/NMM, DMF, 25.0 °C, 3.5 h, 2 steps): 25%

SMILES: Cc1cccc(C)c1-c1cc2nc(n1)NS(=O)(=O)c1cccc(c1)C(=O)N(Cc1ccc(F)nc1)[C@H](CC(C)(C)C)CO2
- ring closure, yield after HPLC ([1]; from Cc1cccc(C)c1-c1cc(OC[C@@H](CC(C)(C)C)NCc2ccc(F)nc2)nc(NS(=O)(=O)c2cccc(C(=O)O)c2)n1, CDMT/NMM, DMF, 25.0 °C, 5.0 h, 2 steps): 34%

SMILES: Cc1cccc(C)c1-c1cc2nc(n1)NS(=O)(=O)c1cccc(c1)C(=O)N(Cc1cccc(F)n1)[C@H](CC(C)(C)C)CO2
- ring closure, yield after HPLC ([1]; from 3-[[4-(2,6-dimethylphenyl)-6-[(2R)-2-[(6-fluoro-2-pyridyl)methylamino]-4,4-dimethyl-pentoxy]pyrimidin-2-yl]sulfamoyl]benzoic acid (Dihydrochloride salt), CDMT/NMM, DMF, 25.2 mM): 66%

SMILES: Cc1cccc(C)c1-c1cc2nc(n1)NS(=O)(=O)c1cccc(c1)C(=O)N(C)CC(c1ccc(CC3(C(F)(F)F)CC3)cn1)O2 (stereo not shown)
- ring closure, yield after HPLC ([1]; from CNCC(Oc1cc(-c2c(C)cccc2C)nc(NS(=O)(=O)c2cccc(C(=O)O)c2)n1)c1ccc(CC2(C(F)(F)F)CC2)cn1, HATU (excess NaOtBu from SNAr), THF/DMF, 49.6 mM, 25.0 °C, 3.0 h, 2 steps): 35%

SMILES: Cc1cccc(C)c1-c1cc2nc(n1)NS(=O)(=O)c1cccc(c1)C(=O)N(CCc1cccc(F)n1)[C@H](CC(C)(C)C)CO2
- ring closure, yield after HPLC ([1]; from Cc1cccc(C)c1-c1cc(OC[C@@H](CC(C)(C)C)NCCc2cccc(F)n2)nc(NS(=O)(=O)c2cccc(C(=O)O)c2)n1, CDMT/NMM, DMF, 25.0 °C, 3.0 h, 2 steps): 6%

SMILES: CCOC(=O)CCCCN1C(=O)c2cccc(c2)S(=O)(=O)Nc2nc(cc(-c3c(C)cccc3C)n2)OC[C@H]1CC(C)(C)C
- ring closure, yield after HPLC ([1]; from CCOC(=O)CCCCN[C@@H](COc1cc(-c2c(C)cccc2C)nc(NS(=O)(=O)c2cccc(C(=O)O)c2)n1)CC(C)(C)C, HATU/DIEA, DMF, 62.0 mM, 25.0 °C, 1.0 h): 66%

SMILES: Cc1cccc(C)c1-c1cc2nc(n1)NS(=O)(=O)c1cccc(c1)C(=O)N(Cc1ccccn1)[C@H](CC(C)(C)C)CO2
- ring closure, yield after HPLC ([1]; from Cc1cccc(C)c1-c1cc(OC[C@@H](CC(C)(C)C)NCc2ccccn2)nc(NS(=O)(=O)c2cccc(C(=O)O)c2)n1, HATU/TEA, DMF, 20.2 mM, 16.0 h): 41%

SMILES: Cc1cccc(C)c1-c1cc2nc(n1)NS(=O)(=O)c1cccc(c1)C(=O)N(Cc1cncc(N(C)C3CCC3)n1)[C@@H]1CN(C(=O)OC(C)(C)C)C[C@H]1O2
- ring closure, yield after HPLC ([1]; from Cc1cccc(C)c1-c1cc(O[C@@H]2CN(C(=O)OC(C)(C)C)C[C@H]2NCc2cncc(N(C)C3CCC3)n2)nc(NS(=O)(=O)c2cccc(C(=O)O)c2)n1, CDMT/NMM, DMF, 24.3 mM, 15.1 h): 48%
